Assay results: article PMC9241057, “Ru(II)arene(N^N bpy/phen)-based RAPTA complexes for in vitro anti-tumour activity in human glioblastoma cancer cell lines and in vivo toxicity studies in a zebrafish model” (RSC Advances, 2022)

Tests used:
zebrafish embryos = details: embryos exposed for 5 h to 100 μM
Experimental: Zebrafish were purchased from Zebrafish CRO, Pentagrit Discovery, Chennai 600100. All the procedures were conducted with reference to the guidelines of OECD 203 (OECD 203, 1992).[29] The local wild-type zebrafish strain weighing approximately 500–600 mg (2–3 months old) were maintained under standard laboratory conditions at 28 °C under a 14 : 10 h light/dark cycle with the conductivity of the water being 350 μS, maintained at pH 7.2–7.4. All the animal experiments including surgical procedures were conducted according to the procedures of the Committee for the Purpose of Control and Supervision of Experiments on Animals (CPCSEA), Govt. of India, as instructed by Institutional Animal ethical guidelines (VIT/IAEC/2019/16/Aug10/15), VIT University.[29] All animal procedures were performed in accordance with the Guidelines for Care and Use of Laboratory Animals of “VIT” University and approved by the Animal Ethics Committee of “VIT”.
Freshly laid eggs [<1 h post-fertilisation (hpf)] were transferred to 50 ml crystallising dishes filled with the respective test solutions. After the successful control of fertilisation, the eggs were separately transferred to 24-well plates with 2 ml of test solution per well. […] The embryos were analysed under an Olympus CKX41 inverted microscope (Olympus, Hamburg, Germany).

Solubility = details: DMSO-10% DMEM medium (1:99 v/v, comparable to cell media)
Ct-DNA = assay: DNA binding study, UV-visible absorption titration; set-up: species or system calf
Experimental: The DNA binding proficiency of RAPTA complexes was explored by applying the concept of electronic absorption titration. The binding propensity of the RAPTA complex, 4c with Ct-DNA, was investigated using UV-visible studies. […] From the plot of [DNA]/(εa − εf) vs. [DNA] the intrinsic binding constant (Kb) was recognized for the specified 4c–DNA conjugate.
The binding capability of the complexes with calf-thymus DNA (Ct-DNA) was evaluated using electronic absorption spectroscopy, and the competitive binding assay was studied using ethidium bromide (EtBr) as a quencher by fluorescence spectroscopy.
The DNA binding experiment was performed in aqueous medium using RAPTA complex 4c in Tris-HCl buffer (5 mM Tris-HCl in water, pH 7.4). The concentration of Ct-DNA was determined using its absorbance at 260 nm and a known molar absorption coefficient of 6600 M-1.cm-1. In cuvettes, an equal amount of DNA was introduced to both the sample and the reference. […] The sample was equilibrated with CT-DNA for around 5 minutes before each measurement, and then the complex's absorbance was measured. The intrinsic DNA binding constant (K b) was calculated using the equation (i): […]
UV and Fluorescence study
All of these RAPTA complexes were studied in a 10% DMSO solution using UV and fluorescence. […] Quantum yield was calculated according to the equation (ii): […]

[1] = n-Octanol/water partition coefficient, shake-flask method
Experimental: n-Octanol–water partition coefficient (log P o/w)8
Using the previously reported shake flask approach, the log Po/w of the RAPTA complexes
followed the previously described procedure. An orbital shaker was used to shake a known
amount of each complexes in water (pre-saturated with n-octanol). The solution was
centrifuged at 3000 rpm for 10 minutes to allow phase separation. Different ratios (0.5:1, 1:1,
and 2:1) of saturated solutions were shaken for 20 minutes on an orbital shaker with pre-
saturated n-octanol to get the partition coefficient. The absorbance of aliquots of the aqueous
and octanol layers were measured with a UV-Vis spectrophotometer after adequate dilution.
The concentrations of the complexes in each layer were estimated using the corresponding
molar extinction coefficients, and the partition coefficient (log Po/w) values were computed

[2] = tested on: TNF-α-induced NF-κB phosphorylation; assay: Real-time RT-PCR; assay type: cell-based, human; details: glioma cells, 48 h
Excerpt: It is known that the NF-κB pathway plays an important role in the modulation of inflammatory and immune responses.[25] Under normal conditions, NF-κB is found in the cytoplasm as the dimer complex p65/p50 with the kappa B inhibitor forming the NF-κB-IκB complex which involves TNF-α. As expected, the treatment with TNF-α induces IκB protein phosphorylation and the NF-κB dimer p65/p50 is translocated into the nucleus. Inside the nucleus, the NF-κB dimer binds to its own DNA and the κB site, initiating the transcription of many genes associated with proliferation as well as the invasion of cells, anti-apoptosis along with drug resistivity (e.g., Bcl-2 family, Bcl-XL, cyclin D1, c-myc, interleukin-1 and 6 (IL-6), cyclooxygenase-2 (COX-2), inducible NO-synthase (iNOS)). Complex 4c reduced TNF-α-induced NF-κB phosphorylation at 48 h. In summary, complex 4c inhibited the TNF-α-induced NF-κB phosphorylation in glioma cells and NF-κB could be validated as a targeted therapeutic molecule for tumour diseases (Fig. S5 ^†).
Cultured cells U87MG and T98G were treated with various concentrations of 4c (20–160 μM) for 48 h. Total RNA was extracted and complementary DNA (cDNA) was transcribed using Qiazol reagent and Thermo Scientific Revert Aid First Strand cDNA Synthesis Kit. […] The amplified products were analyzed by a melting curve analysis.

U87MG cells = assay: Cell cycle analysis by flow cytometry; assay type: cell-based, human; details: 0.93 μM
Experimental: As per the results of the MTT assay, there was an inhibition of cell proliferation that was further validated by determining the cellular damage, DNA damage and oxidative stress. Therefore, we went forward to investigate the DNA content by flow cytometry. […] We also observed a low S phase and M phase after the complex treatment (Fig. 4).
Fig. 4 Cell cycle analysis with the control U87MG cells (above) and the treatment of 0.93 μM 4d (below). TEXT PRINTED IN THE PICTURE: 4d: G0-G1(70.49%); S(21.32%); M(2.49%); Sub G1(3.48%) DOUBTS OF THE COPYIST ABOUT THIS PICTURE: 4d, G0-G1: 70.49% - blurred print, 9 could be 8 / 4d, S: 21.32% - blurred print, 3 could be 8 / 4d, M: 2.49% - blurred print, 9 could be 8 / 4d, Sub G1: 3.48% - blurred print, 3 and 8 not certain (3.46 or 3.48) / The Control plots (untreated cells, not a substance) print P2(43.61%), P3(29.04%), P4(24.36%), Sub G1(6.24%); these are left out of the lines, and their digits are blurred too

SMILES	morbidity or mortality of embryos (zebrafish embryos)	solubility (Solubility) [mM]	Change in absorbance (Ct-DNA)	Δε (%), % of hyperchromism/hypochromism (Ct-DNA) [%]	log P (partition coefficient in n-octanol/water) [1]	TNF-α-induced NF-κB phosphorylation [2]	G0/G1 phase (U87MG cells) [%]
C1N2CN3CN1CP(C2)C3.Cc1ccc(C(C)C)cc1.Cc1ccnc2c1ccc1c(C)ccnc12.F[P-](F)(F)(F)(F)F.F[P-](F)(F)(F)(F)F.[Ru+2] [4c, [(η^6-p-Cymene)Ru^II(κ^2-N,N-4,7dimethylphenanthroline)(PTA)]·2PF6]	No significant morbidity or mortality	18	Hyperchromism	50	0.30±0.04	reduced	
C1N2CN3CN1CP(C2)C3.Cc1ccc(C(C)C)cc1.F[P-](F)(F)(F)(F)F.F[P-](F)(F)(F)(F)F.[Ru+2].c1ccc(-c2ccnc3c2ccc2c(-c4ccccc4)ccnc23)cc1 [4d, [(η^6-p-Cymene)Ru^II(κ^2-N,N-4,7diphenylphenanthroline)(PTA)]·2PF6]							~70.49
